The record followed here is patent US5620985A, “Antimitotic binary alkaloid derivatives from catharanthus roseus” (Pierre Fabre Medicament, priority 1993, dated 1997).

pIC50: −log10 of the molar value.

The subject of one test is MCF-7. Description: MTT cytotoxicity test, MCF-7 (growth inhibition). It counts as cell-based. To be noted: Homo sapiens, MCF7; 1 μg/ml; MCF-7 (breast); relative to the controls; read-out: Percentage inhibition of growth MCF-7. The procedure:
(§1) Thus, the cytotoxic activity of the products was evaluated using the MTT test [T. Mosman, J. Immunol. […] The amount of formazan formed (and consequently the intensity of the color obtained) is directly proportional to the number of living cells present in the culture medium at the time of the test. The lines used are of human origin, and are marketed by the American Type Cell Collection (ATCC), the reference body for the supply of standardized strains.
(§2) The experimental procedure used is essentially that described by C.
(§3) The results are expressed in the form of a percentage inhibition of growth relative to the controls.

The next test deals with tubulin. Description: inhibition of polymerization of tubulin into microtubules (Weisenberg). It counts as biochemical. To be noted: variations in optical density; read-out: IC50 (concentration which causes 50% inhibition of the polymerization). An excerpt: This property was confirmed by measuring the inhibition of polymerization of tubulin into microtubules in the presence of the compounds of the invention, according to the method described by R. C. Weisenberg (Science 177, 1196-7, 1972). The results are expressed as a concentration of product which causes 50% inhibition of the polymerization. This phenomenon is readily monitored and quantified via the variations in optical density.

The test system of another test is T47D. Kind of test: MTT cytotoxicity test, T47D (growth inhibition). The class given is cell-based. To be noted: Homo sapiens; 1 μg/ml; T47D (breast); relative to the controls; read-out: Percentage inhibition of growth T47. The procedure: as §1, §2, §3
Another test has as its system T24. Kind of test: MTT cytotoxicity test, T24 (growth inhibition). The class given is cell-based. To be noted: Homo sapiens, T-24; 1 μg/ml; T24 (bladder); relative to the controls; read-out: Percentage inhibition of growth T24. The procedure: as §1, §2, §3
For orientation: Tetrazolium dyes change colour on reduction, which living cells bring about.

Another test concerns J82. Description: MTT cytotoxicity test, J82 (growth inhibition). The class given is cell-based. To be noted: Homo sapiens; 1 μg/ml; J82 (bladder); relative to the controls; read-out: Percentage inhibition of growth J82. The procedure:
as §1, §2, §3

A further test deals with MXT adenocarcinoma. Kind of test: in vivo test on MXT adenocarcinoma grafted in B6D2F1 mice. To be noted: for activity on the MXT model: in words, MXT adenocarcinoma model. An excerpt:
The antitumor properties of the products of the invention were confirmed by in vivo tests, in particular on the model of mammalian MXT adenocarcinoma,which is a solid tumor that is particularly insensitive to anticancer agents [C. S. Watson, D. Medina, J. H. Clark, Cancer Res., 37, 3344 (1977); W. T. Bradher and C. A. Claridge, "Antineoplastic Agents", Wiley-Interscience (1984); T. W. Redding and A. V. Schally, Proc. Natl. Acad. Sci. U.S.A., 80, 1459 (1983)].
In this model, mice of type B6D2F1 are grafted by injection (subcutaneous) of a tumor fragment of about 10 mm^3 originating from an MXT tumor. The test products are administered via the i.p. route starting from the 17th day after the graft.

Usually inhibition stands for the share of the control response that was lost under treatment. Take `CC[C@]12C=CCN3CC[C@@]4(c5cc([C@@]6(C(=O)OC)C[C@@H]7CC(C(C)(F)F)CN(Cc8c6[nH]c6ccccc86)C7)c(OC)cc5N(C)[C@H]4[C@@](O)(C(=O)OC)[C@@H]1OC(C)=O)[C@@H]32` (stereo partly drawn) [Example 1, 19',19'-difluoro 15',20'-dihydrovinorelbine]: the inhibition at 1 µg/mL with MCF-7 amounted to 68%; in the test on T47D, 44%; in the test on T24, 70%; in the test on J82, 45%. In the test with tubulin, the pIC50 is 5.60. Besides, the “reduction in tumor size relative to the untreated controls” value in the test on MXT adenocarcinoma (9×40 mg/kg, i.p., starting from the 17th day after the graft) was 40%.

For `CCC1=C[C@@H]2CN(C1)Cc1c([nH]c3ccccc13)[C@@](C(=O)OC)(c1cc3c(cc1OC)N(C)[C@H]1[C@@](O)(C(=O)OC)[C@H](OC(C)=O)[C@]4(CC)C=CCN5CC[C@]31[C@@H]54)C2` [VINORELBINE, vinorelbine, reference compound], the inhibition at 1 µg/mL with MCF-7 was 50%; in the test on T47D, 16%; with T24 it was 62%; in the test with J82, 14%. For the same compound, in the test on MXT adenocarcinoma, the “activity on the MXT model” value was “devoid of activity”.

Take `CC[C@]1(O)C[C@@H]2CN(CCc3c([nH]c4ccccc34)[C@@](C(=O)OC)(c3cc4c(cc3OC)N(C)[C@H]3[C@@](O)(C(N)=O)[C@H](O)[C@]5(CC)C=CCN6CC[C@]43[C@@H]65)C2)C1` [vindesine]: the “activity on the MXT model” value in the test on MXT adenocarcinoma is given as “devoid of activity”.

Consider `CC[C@]12C=CCN3CC[C@@]4(c5cc([C@@]6(C(=O)OC)C[C@@H]7CC(C(C)(F)F)CN(CCc8c6[nH]c6ccccc86)C7)c(OC)cc5N(C)[C@H]4[C@@](O)(C(=O)OC)[C@@H]1O)[C@@H]32` (stereo partly drawn) [Example 12, 17-deacetyl 20'-deoxy 19',19'-difluorovinblastine], for which the inhibition at 1 µg/mL in the test with MCF-7 was determined as 36%; in the test on T47D it was 27%; in the test with T24 it was 72%; in the test with J82, 0%. Further, the pIC50 in the test on tubulin was 5.38.

Regarding `CC[C@]1(O)C[C@@H]2CN(CCc3c([nH]c4ccccc34)[C@@](C(=O)OC)(c3cc4c(cc3OC)N(C)[C@H]3[C@@](O)(C(=O)OC)[C@H](OC(C)=O)[C@]5(CC)C=CCN6CC[C@]43[C@@H]65)C2)C1` [VINBLASTINE, vinblastine, reference compound], the pIC50 with tubulin was […]. For the same compound, in the test on MXT adenocarcinoma, the “activity on the MXT model” value is on record as “devoid of activity”.

Take `CC[C@]12C=CCN3CC[C@@]4(c5cc([C@@]6(C(=O)OC)C[C@@H]7CC(C(C)(F)F)CN(Cc8c6[nH]c6ccccc86)C7)c(OC)cc5N(C)[C@H]4[C@@](O)(C(=O)OC)[C@@H]1O)[C@@H]32` (stereo partly drawn) [Example 11, 17-deacetyl 19',19'-difluoro 15',20'-dihydrovinorelbine]: the inhibition at 1 µg/mL in the test on MCF-7 was 45%; in the test on T47D it was 30%; in the test on T24, 51%; in the test on J82, 60%. Besides, the pIC50 in the test on tubulin was 5.54.

In the case of `CC[C@]1(O)C[C@@H]2CN(CCc3c([nH]c4ccccc34)[C@@](C(=O)OC)(c3cc4c(cc3OC)N(C=O)[C@H]3[C@@](O)(C(=O)OC)[C@H](OC(C)=O)[C@]5(CC)C=CCN6CC[C@]43[C@@H]65)C2)C1` [vincristine], the “activity on the MXT model” value with MXT adenocarcinoma was “devoid of activity”.

With `CC[C@]12C=CCN3CC[C@@]4(c5cc([C@@]6(C(=O)OC)C[C@@H]7CC(C(C)(F)F)CN(CCc8c6[nH]c6ccccc86)C7)c(OC)cc5N(C)[C@H]4[C@@](O)(C(=O)OC)[C@@H]1OC(C)=O)[C@@H]32` (stereo partly drawn) [Example 5, 20'-deoxy 19',19'-difluorovinblastine], the inhibition at 1 µg/mL with MCF-7 is 36%; with T47D, 27%; in the test with T24, 50%; with J82, 15%. Also, the pIC50 with tubulin is 5.05.
